pIC50: −log10 of the molar value.
Legend:
[1] = target: IL-17A(FLAG-tagged): IL-17RA(His-tagged) (Homo sapiens, UniProt Q16552, K93Q); experiment: IL-17A(FLAG-tagged): IL-17RA(His-tagged) binding disruption Eu-HTRF assay; conditions: class of the average IC50 where tested more than once
Source text: IL-17A(FLAG-tagged): IL-17RA(His-tagged) binding disruption Eu-HTRF assay An antibody directed against the FLAG tag of IL-17A (SEQ ID NO: 1) is labeled with the HTRF donor chromophore (Europium-cryptate). IL-17A is present as a dimer that is “locked into” this quaternary structure due to the formation of loop-spanning intramolecular disulfide bridges. The construct of IL-17RA used in the assay excludes the […] portion of the receptor and is fused to a C-terminal 10×His tag (SEQ ID NO:2). An antibody directed against the His tag of the IL-17RA chimera is labeled with the HTRF acceptor chromophore (“D2”). The fluorescence-resonance energy transfer (FRET) depends on the vicinity of the donor chromophore to the acceptor, and interruption of the binding between the IL-17A and IL-17RA causes the reduction/loss of FRET. Therefore, this assay allows to evaluate the compound effect on the binding IL-17A and IL-17RA by monitoring the fluorescence intensity of donor vs acceptor. The assay is run as described below.
40 nl of 2-fold serial diluted compound solution for total 22 dilution points is added into each well of a 1536-well, white, low-volume, non-binding plate (Greiner #782904), then 2 μl of FLAG tagged IL-17A at 2× final concentration (1 μM) in solution of PBS+0.01% Triton-X100 is added to each well. The assay plate is briefly centrifuged then incubated for 1 h at rt. A mixed solution is prepared containing 2×5 nM 10HIS×IL-17RA, 2×2.5 nM Eu-anti-FLAG (CISBIO), 2×5 nM D2-anti-HIS (CISBIO) in PBS+0.01% Triton-X100+200 mM Potassium Fluoride (Sigma 60238) and 2 μl of mix is added to each well of the assay plate. The plate is briefly centrifuged then incubated for 2 h at rt. The HTRF intensities at the wavelength of donor (615 nm) and acceptor (665 nm) are measured using BMG Pherastar. The ratio between intensities at two wavelengths is calculated and plotted against the compound concentration and the data is fitted to a one-site competition model to yield IC50 of the compound.

[2] = test system: IL-17A-induced G-CSF production in human normal keratinocyte (NHK); experiment: NHK assay: IL-17A-induced G-CSF production in normal human keratinocytes; type: cell-based; conditions: 24 h, IL-17A 5 ng/mL, class of the average IC50 where tested more than once
Experimental: IL-17A acts directly on keratinocytes through binding to dimeric receptor IL-17RA/RC and drives the production of a number of inflammatory mediators known to be elevated in psoriasis lesional tissue. IL-17A small molecule inhibitors that block the IL-17A to interact with IL-17R would inhibit the IL-17A signaling in its targeted cells such as keratinocytes. The compound functional activity is evaluated for its impact on IL-17A-induced G-CSF production in human normal keratinocyte (NHK).
Adult normal human keratinocytes are cultured in keratinocyte growth medium (Lonza) in a flask till reaching ~90% confluence, then cells are transferred to a 384-well plate at density of 3000-4000 cell/well. Recombinant human IL-17A (Gibco PHC9174) is pre-incubated with titrated compound or DMSO for 1 h at rt then added to the cell culture plate. The final concentration of IL-17A is 5 ng/mL and DMSO is 0.2%, in the culture containing 5% FBS. Cells are cultured/treated for 24 h at 37° C. Supernatants are collected and G-CSF production is measured through HTRF technology using Human G-CSF Kit (CisBio). G-CSF concentration was extrapolated from the standard curve and IC50 is determined using GraphPad Prism. Cell viability is also evaluated using CellTiter-Glo kit (Promega) and effect of compound on cell viability is compared to DMSO control.

Sequence of UniProt Q16552 (Q16552 with tags, fused parts or gaps K93Q): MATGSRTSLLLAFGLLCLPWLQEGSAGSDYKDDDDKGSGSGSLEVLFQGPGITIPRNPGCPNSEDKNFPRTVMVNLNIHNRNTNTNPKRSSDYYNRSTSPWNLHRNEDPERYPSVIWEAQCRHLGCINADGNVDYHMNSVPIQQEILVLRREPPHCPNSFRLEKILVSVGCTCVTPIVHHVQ

Structure (SMILES) | pIC50 [1] | pIC50 ([2]; Homo sapiens, Keratinocyte) | pIC50 [2]
Cc1nonc1C(=O)N[C@H](c1cn2ncc(C[C@H]3CC[C@H](C(F)(F)F)NC3=O)cc2n1)C1CCC(F)(F)CC1 (relative stereo) [Example 46, N—((S)-(4,4-difluorocyclohexyl)(7-(((3R*,6R*)-2-oxo-6-(trifluoromethyl)piperidin-3-yl)methyl)imidazo[1,2-b]pyridazin-2-yl)methyl)-4-methyl-1,2,5-oxadiazole-3-carboxamide] | < 5.40 | < 5.40 | 
Cc1nonc1C(=O)N[C@H](c1cn2ncc(CC3(CC#N)C[C@@H](C(F)(F)F)NC3=O)cc2n1)C1CCC(F)(F)CC1 (single isomer, unassigned) [Example 103, N—((S)-(7-(((3S*,5S)-3-(Cyanomethyl)-2-oxo-5-(trifluoromethyl)pyrrolidin-3-yl)methyl)imidazo[1,2-b]pyridazin-2-yl)(4,4-difluorocyclohexyl)methyl)-4-methyl-1,2,5-oxadiazole-3-carboxamide] | > 6.40 | > 6.40 | 
CC1(C)CC(Cc2cnn3cc([C@@H](NC(=O)c4nonc4C4CC4)C4CCC(F)(F)CC4)nc3c2)C(=O)N1 (single isomer, unassigned) [Example 13, 4-Cyclopropyl-N—[(S)-(4,4-difluorocyclohexyl)-[7-[[(3R*)-5,5-dimethyl-2-oxo-pyrrolidin-3-yl]methyl]imidazo[1,2-b]pyridazin-2-yl]methyl]-1,2,5-oxadiazole-3-carboxamide] | > 6.40 | 5.40 to 6.40 | 
O=C(N[C@H](c1cn2ncc(C[C@H]3C(=O)NCC[C@H]3C(F)(F)F)cc2n1)C1CCC(F)(F)CC1)c1nonc1C1CC1 (relative stereo) [Example 44, 4-Cyclopropyl-N—((S)-(4,4-difluorocyclohexyl)(7-(((3R*,4R*)-2-oxo-4-(trifluoromethyl)piperidin-3-yl)methyl)imidazo[1,2-b]pyridazin-2-yl)methyl)-1,2,5-oxadiazole-3-carboxamide] | 5.40 to 6.40 | < 5.40 | 
Cc1nonc1C(=O)N[C@H](c1cn2ncc(CC3(CN(C)C)C[C@@H](C(F)(F)F)NC3=O)cc2n1)C1CCC(F)(F)CC1 (single isomer, unassigned) [Example 105, N—((S)-(4,4-Difluorocyclohexyl)(7-(((3S*,5S)-3-((dimethylamino)methyl)-2-oxo-5-(trifluoromethyl)pyrrolidin-3-yl)methyl)imidazo[1,2-b]pyridazin-2-yl)methyl)-4-methyl-1,2,5-oxadiazole-3-carboxamide] | > 6.40 | > 6.40 | 
O=C(N[C@H](c1cn2ncc(C(O)C3CC(C(F)(F)F)NC3=O)cc2n1)C1CCC(F)(F)CC1)c1nonc1C1CC1 (stereo partly drawn) [Example 61, 4-Cyclopropyl-N—[(S)-(4,4-difluorocyclohexyl)-[7-[hydroxy-[2-oxo-5-(trifluoromethyl)pyrrolidin-3-yl]methyl]imidazo[1,2-b]pyridazin-2-yl]methyl]-1,2,5-oxadiazole-3-carboxamide] | 5.40 to 6.40 | > 6.40 | 
O=C(N[C@H](c1cn2ncc([C@@H](O)[C@@H]3C[C@H](C(F)(F)F)NC3=O)cc2n1)C1CCC(F)(F)CC1)c1nonc1C1CC1 (single isomer, unassigned) [Example 76] | < 5.40 | 5.40 to 6.40 | 
C[C@@]1(C(F)(F)F)CC(Cc2cnn3cc([C@@H](NC(=O)c4nonc4C4CC4)C4CCC(F)(F)CC4)nc3c2)C(=O)N1 (single isomer, unassigned) [Example 56, 4-Cyclopropyl-N—((S)-(4,4-difluorocyclohexyl)(7-(((3R*,5S)-5-methyl-2-oxo-5-(trifluoromethyl)pyrrolidin-3-yl)methyl)imidazo[1,2-b]pyridazin-2-yl)methyl)-1,2,5-oxadiazole-3-carboxamide] | 5.40 to 6.40 |  | 5.40 to 6.40
O=C(N[C@H](c1cn2ncc([C@@H](O)[C@@H]3C[C@@H](C(F)(F)F)NC3=O)cc2n1)C1CCC(F)(F)CC1)c1nonc1C1CC1 (relative stereo) [Example 72, 4-Cyclopropyl-N—((S)-(4,4-difluorocyclohexyl(7-((S*)-hydroxy((3S*,5S*)-2-oxo-5-(trifluoromethyl)pyrrolidin-3-yl)methyl)imidazo[1,2-b]pyridazin-2-yl)methyl)-1,2,5-oxadiazole-3-carboxamide] | 5.40 to 6.40 | 5.40 to 6.40 | 
COc1nonc1C(=O)N[C@H](c1cn2ncc(CC3C[C@@H](C(F)(F)F)NC3=O)cc2n1)C1CCC(F)(F)CC1 (single isomer, unassigned) [Example 8, N—((S)-(4,4-Difluorocyclohexyl)(7-(((3S*,5S)-2-oxo-5-(trifluoromethyl)pyrrolidin-3-yl)methyl)imidazo[1,2-b]pyridazin-2-yl)methyl)-4-methoxy-1,2,5-oxadiazole-3-carboxamide] | < 5.40 |  | < 5.40
CC1(C(=O)c2cnn3cc([C@@H](NC(=O)c4nonc4C4CC4)C4CCC(F)(F)CC4)nc3c2)C[C@@H](C(F)(F)F)NC1=O (mixture of isomers) [Example 102, 4-Cyclopropyl-N—[(S)-(4,4-difluorocyclohexyl)-[7-[(3RS,5S)-3-methyl-2-oxo-5-(trifluoromethyl)pyrrolidine-3-carbonyl]imidazo[1,2-b]pyridazin-2-yl]methyl]-1,2,5-oxadiazole-3-carboxamide] | > 6.40 | > 6.40 | 
CC1(Cc2cnn3cc([C@@H](NC(=O)c4nonc4C4CC4)C4CCC(F)(F)CC4)nc3c2)CCCNC1=O (single isomer, unassigned) [Example 27, 4-Cyclopropyl-N—((S)-(4,4-difluorocyclohexyl)(7-(((R*)-3-methyl-2-oxopiperidin-3-yl)methyl)imidazo[1,2-b]pyridazin-2-yl)methyl)-1,2,5-oxadiazole-3-carboxamide] | 5.40 to 6.40 |  | < 5.40
C[C@H]1C[C@@H](Cc2cnn3cc([C@@H](NC(=O)c4nonc4C4CC4)C4CCC(F)(F)CC4)nc3c2)C(=O)N1 (relative stereo) [Example 82, 4-Cyclopropyl-N—((S)-(4,4-difluorocyclohexyl)(7-(((3R*,5S*)-5-methyl-2-oxopyrrolidin-3-yl)methyl)imidazo[1,2-b]pyridazin-2-yl)methyl)-1,2,5-oxadiazole-3-carboxamide] | 5.40 to 6.40 | < 5.40 | 
C[C@@H]1CNC(=O)[C@@H]1Cc1cnn2cc([C@@H](NC(=O)c3nonc3C3CC3)C3CCC(F)(F)CC3)nc2c1 (relative stereo) [Example 88, 4-Cyclopropyl-N—[(S)-(4,4-difluorocyclohexyl)-[7-[[(3R*,4S*)-4-methyl-2-oxo-pyrrolidin-3-yl]methyl]imidazo[1,2-b]pyridazin-2-yl]methyl]-1,2,5-oxadiazole-3-carboxamide] | 5.40 to 6.40 | < 5.40 | 
Cc1nonc1C(=O)N[C@H](c1cn2ncc(CC3C[C@@H](C(F)(F)F)NC3=O)cc2n1)C1CCC(F)(F)CC1 (single isomer, unassigned) [Example 9, N—[(S)-(4,4-Difluorocyclohexyl)-[7-[[(3S*,5S)-2-oxo-5-(trifluoromethyl)pyrrolidin-3-yl]methyl]imidazo[1,2-b]pyridazin-2-yl]methyl]-4-methyl-1,2,5-oxadiazole-3-carboxamide] | > 6.40 |  | > 6.40
O=C(N[C@H](c1cn2ncc(C[C@@]34CC[C@H](C3)NC4=O)cc2n1)C1CCC(F)(F)CC1)c1nonc1C1CC1 (single isomer, unassigned) [Example 17] | 5.40 to 6.40 | < 5.40 | 
